The values that follow are results of earlier work, collected in patent US20040157836A1, “Sulfonamides having antiangiogenic and anticancer activity” (priority 2002, published 2004).

Each structure is given as a SMILES string.

The target in this data set is type 2-methionine aminopeptidase (MetAP-2) (Homo sapiens, UniProt P50579). To be noted: reported in Proc. Natl. Acad. Sci. USA 94: 6099-6103 (1997) and Chemistry and Biology, 4(6): 461-471 (1997).
Chain of type 2-methionine aminopeptidase (MetAP-2) (P50579 whole entry, species assumed): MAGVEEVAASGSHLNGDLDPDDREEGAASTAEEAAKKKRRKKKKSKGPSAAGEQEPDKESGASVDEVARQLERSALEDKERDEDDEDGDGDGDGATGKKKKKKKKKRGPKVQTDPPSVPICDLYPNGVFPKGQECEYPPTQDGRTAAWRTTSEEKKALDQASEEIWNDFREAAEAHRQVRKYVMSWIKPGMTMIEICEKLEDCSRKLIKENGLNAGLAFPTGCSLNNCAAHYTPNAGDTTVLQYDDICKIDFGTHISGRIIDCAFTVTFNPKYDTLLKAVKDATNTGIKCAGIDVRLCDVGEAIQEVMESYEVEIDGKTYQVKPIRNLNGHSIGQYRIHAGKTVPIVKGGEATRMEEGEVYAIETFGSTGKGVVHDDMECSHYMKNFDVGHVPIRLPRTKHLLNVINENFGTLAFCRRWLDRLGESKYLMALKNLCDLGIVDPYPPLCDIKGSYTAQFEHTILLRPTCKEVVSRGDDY

As to `CO[C@@H]1[C@H](OC(=O)NC(=O)CCl)CC[C@]2(CO2)[C@H]1[C@@]1(C)O[C@@H]1CC=C(C)C` [AGM-1470], the “bind to type 2-methionine aminopeptidase (MetAP-2)” value is recorded as “bind”.
